This note sets out measurements from PubChem BioAssay AID248 (DTP/NCI, 2004).

In the experiment the test system is L1210 leukemia ip in BDF1 mice, survival T/C. In words: NCI In Vivo Anticancer Drug Screen. Data for tumor model L1210 Leukemia (intraperitoneal) in B6D2F1 (BDF1) mice. The note with it: endpoint: mean survival time, higher = longer survival. The procedure, abridged:
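Survival endpoint. Drug-treated group vs vehicle group, expressed as T divided by C. Tumor passaged by transplantation.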

Where [1] appears, read: dose: 100.0 mg/kg/injection, schedule: Q01DX001 (ip), vehicle: saline.
Where [2] appears, read: dose: 100.0 mg/kg/injection, schedule: Q01DX009 (ip), vehicle: saline.
Where [3] appears, read: dose: 200.0 mg/kg/injection, schedule: Q01DX001 (ip), vehicle: saline.
Setting [4] is: dose: 200.0 mg/kg/injection, schedule: Q01DX009 (ip), vehicle: saline.
Setting [5] is: dose: 400.0 mg/kg/injection, schedule: Q01DX001 (ip), vehicle: saline.
Setting [6] is: dose: 100.0 mg/kg/injection, schedule: Q04DX003 (ip), vehicle: saline with Tween-80.
[7] abbreviates: dose: 200.0 mg/kg/injection, schedule: Q04DX003 (ip), vehicle: saline with Tween-80.
[8] abbreviates: dose: 400.0 mg/kg/injection, schedule: Q04DX003 (ip), vehicle: saline with Tween-80.
The mark [9] stands for this setting: dose: 100.0 mg/kg/injection, schedule: Q04DX002 (ip), vehicle: saline with Tween-80.
[10] abbreviates: dose: 200.0 mg/kg/injection, schedule: Q04DX002 (ip), vehicle: saline with Tween-80.
The mark [11] stands for this setting: dose: 400.0 mg/kg/injection, schedule: Q04DX002 (ip), vehicle: saline with Tween-80.
The mark [12] stands for this setting: dose: 25.0 mg/kg/injection, schedule: Q01DX009 (ip), vehicle: other.
[13] abbreviates: dose: 25.0 mg/kg/injection, schedule: Q01DX009 (ip), vehicle: saline.
Setting [14] is: dose: 50.0 mg/kg/injection, schedule: Q01DX009 (ip), vehicle: saline.
Where [15] appears, read: dose: 200.0 mg/kg/injection, schedule: Q01DX009 (ip), vehicle: other.
Setting [16] is: dose: 100.0 mg/kg/injection, schedule: Q01DX001 (ip), vehicle: Klucel (hydroxypropylcellulose) (HPC).
The mark [17] stands for this setting: dose: 200.0 mg/kg/injection, schedule: Q01DX001 (ip), vehicle: Klucel (hydroxypropylcellulose) (HPC).
[18] abbreviates: dose: 200.0 mg/kg/injection, schedule: Q01DX001 (ip), vehicle: carboxymethylcellulose (CMC).

Where “and” joins values, the source holds several entries; their conditions need not be identical. Identical values can stand only once. Inconclusive results and toxic doses are left out.

For `CCCCCC[Se][Se]CCCCCC`, the T/C (dose: 6.25 mg/kg/injection, schedule: Q01DX009 (ip), vehicle: Klucel (hydroxypropylcellulose) (HPC)) is 96 % of control; the T/C (dose: 12.5 mg/kg/injection, schedule: Q01DX009 (ip), vehicle: Klucel (hydroxypropylcellulose) (HPC)) is 96 % of control; the T/C (dose: 25.0 mg/kg/injection, schedule: Q01DX009 (ip), vehicle: Klucel (hydroxypropylcellulose) (HPC)) is 91 % of control; the T/C (dose: 25.0 mg/kg/injection, schedule: Q04DX003 (ip), vehicle: Klucel (hydroxypropylcellulose) (HPC)) was 90 % of control; the T/C (dose: 50.0 mg/kg/injection, schedule: Q04DX003 (ip), vehicle: Klucel (hydroxypropylcellulose) (HPC)) was 103 % of control and 107 % of control.
As for `CC(C)c1cc(C(C)C)c(S(=O)(=O)/C=C/c2ccccc2)c(C(C)C)c1`, the T/C is, setting by setting: under setting [1], 104 % of control; under setting [2], 91 % of control; (dose: 100.0 mg/kg/injection, schedule: Q04DX003 (ip), vehicle: acetone) 100 % of control; under setting [3], 97 % of control; under setting [4], 93 % of control; (dose: 200.0 mg/kg/injection, schedule: Q04DX003 (ip), vehicle: acetone) 97 % of control. In addition, the T/C is 92 % of control under setting [5]; 89 % of control (dose: 400.0 mg/kg/injection, schedule: Q01DX009 (ip), vehicle: saline); 105 % of control (dose: 400.0 mg/kg/injection, schedule: Q04DX003 (ip), vehicle: acetone).
With `CC(=O)Oc1ccccc1OC(=S)N(C)C`, the T/C is 106 % of control under setting [6], 111 % of control under setting [7] and 105 % of control under setting [8].
As for `O=S1(=O)N2CN3CCN(C2)CN1C3`, the T/C is 105 % of control (dose: 100.0 mg/kg/injection, schedule: Q01DX009 (ip), vehicle: Klucel (hydroxypropylcellulose) (HPC)); 95 % of control (dose: 100.0 mg/kg/injection, schedule: Q04DX003 (ip), vehicle: Klucel (hydroxypropylcellulose) (HPC)); 115 % of control (dose: 200.0 mg/kg/injection, schedule: Q01DX009 (ip), vehicle: Klucel (hydroxypropylcellulose) (HPC)); 103 % of control (dose: 200.0 mg/kg/injection, schedule: Q04DX003 (ip), vehicle: Klucel (hydroxypropylcellulose) (HPC)); 98 % of control (dose: 400.0 mg/kg/injection, schedule: Q01DX009 (ip), vehicle: Klucel (hydroxypropylcellulose) (HPC)); 98 % of control (dose: 400.0 mg/kg/injection, schedule: Q04DX003 (ip), vehicle: Klucel (hydroxypropylcellulose) (HPC)).
Consider `O=[N+]([O-])c1ccc(C2N=C(c3ccccc3)CS2(=O)=O)cc1` (stereo unspecified), for which the T/C is 97 % of control (dose: 100.0 mg/kg/injection, schedule: Q04DX003 (ip), vehicle: saline); 95 % of control (dose: 200.0 mg/kg/injection, schedule: Q04DX003 (ip), vehicle: saline); 93 % of control (dose: 400.0 mg/kg/injection, schedule: Q04DX003 (ip), vehicle: saline).
Take `O=C(O)C(Br)C(Br)C(=O)Nc1cccc(Cl)c1` (stereo unspecified): the T/C under setting [9] is 91 % of control, the T/C under setting [10] is 95 % of control and the T/C under setting [11] is 88 % of control.
In the case of `CC(NC(=O)C(N)CSC(c1ccccc1)(c1ccccc1)c1ccccc1)C(=O)O` (stereo unspecified), the T/C is 121 % of control under setting [12]; 114 % of control under setting [13]; 122 % of control under setting [14]; 152 % of control under setting [2]; 88 % of control under setting [15]; 111 % of control under setting [4].
Take `CC([NH-])C(=O)O.CC([NH-])C(=O)O.CC([NH-])C(=O)O.[Co+3]` (stereo unspecified): the T/C is, setting by setting: (dose: 25.0 mg/kg/injection, schedule: Q04DX002 (ip), vehicle: saline with Tween-80) 115 % of control; (dose: 50.0 mg/kg/injection, schedule: Q01DX009 (ip), vehicle: water) 103 % of control; (dose: 50.0 mg/kg/injection, schedule: Q04DX002 (ip), vehicle: saline with Tween-80) 98 % of control; (dose: 100.0 mg/kg/injection, schedule: Q01DX009 (ip), vehicle: water) 118 % of control; under setting [9], 115 % of control.
Consider `C#CCO`, for which the T/C (dose: 12.0 mg/kg/injection, schedule: Q01DX009 (ip), vehicle: saline) was 107 % of control; the T/C under setting [13] is 110 % of control; the T/C under setting [14] was 94 % of control.
For `NC(=O)c1[nH]cnc1N1CC[N+](Cc2ccccc2)=N1`, the T/C under setting [16] was 102 % of control and the T/C under setting [17] was 96 % of control.
Regarding `CNC(=O)Oc1cc2ccccc2cc1C(=O)Nc1ccccc1`, the T/C is 97 % of control (dose: 100.0 mg/kg/injection, schedule: Q04DX002 (ip), vehicle: Klucel (hydroxypropylcellulose) (HPC)); 100 % of control (dose: 200.0 mg/kg/injection, schedule: Q04DX002 (ip), vehicle: Klucel (hydroxypropylcellulose) (HPC)); 113 % of control (dose: 400.0 mg/kg/injection, schedule: Q04DX002 (ip), vehicle: Klucel (hydroxypropylcellulose) (HPC)).
For `Cn1ncn(/N=C/c2ccc([N+](=O)[O-])o2)c1=O`, the T/C reads like this: (dose: 12.5 mg/kg/injection, schedule: Q01DX009 (ip), vehicle: other) 91 % of control; under setting [12], 93 % of control; (dose: 50.0 mg/kg/injection, schedule: Q01DX009 (ip), vehicle: other) 91 % of control; (dose: 100.0 mg/kg/injection, schedule: Q01DX009 (ip), vehicle: other) 87 % of control; under setting [15], 87 % of control.
Consider `C=CCN(CC=C)C(=O)c1cc(Cl)ccc1Cl`, for which the T/C by setting is: under setting [9], 97 % of control; under setting [10], 103 % of control; under setting [11], 110 % of control.
Turning to `CC1=CC(=O)CC(c2ccc(N(C)C)cc2)C1` (stereo unspecified), the T/C (dose: 25.6 mg/kg/injection, schedule: Q04DX002 (ip), vehicle: saline with Tween-80) is 101 % of control and the T/C (dose: 64.0 mg/kg/injection, schedule: Q04DX002 (ip), vehicle: saline with Tween-80) is 97 % of control.
With `O=C1OC(c2ccc3c(c2)OCO3)C(C(=O)CCl)c2ccccc21` (stereo unspecified), the T/C under setting [6] was 97 % of control and the T/C under setting [7] was 93 % of control.
Take `CNc1nc2nc[nH]c2c(=S)n1C`: the T/C under setting [1] is 103 % of control and the T/C under setting [3] was 100 % of control.
For the compound `CCCCCCCCCCCCOS(=O)(=O)O`, the T/C under setting [1] was 98 % of control, the T/C under setting [3] was 95 % of control and the T/C under setting [5] was 98 % of control.
For the compound `Cc1c([N+](=O)[O-])cc(CCn2cnc3c(=O)[nH]cnc32)cc1[N+](=O)[O-]`, the T/C is 98 % of control (dose: 50.0 mg/kg/injection, schedule: Q01DX001 (ip), vehicle: carboxymethylcellulose (CMC)); 98 % of control (dose: 100.0 mg/kg/injection, schedule: Q01DX001 (ip), vehicle: carboxymethylcellulose (CMC)); 95 % of control under setting [18]; 104 % of control (dose: 400.0 mg/kg/injection, schedule: Q01DX001 (ip), vehicle: carboxymethylcellulose (CMC)).
Take `CC1CCC2(O)C(O)CCCC2(C)C1C` (stereo unspecified): the T/C (dose: 50.0 mg/kg/injection, schedule: Q01DX009 (ip), vehicle: saline with Tween-80) was 92 % of control; the T/C (dose: 100.0 mg/kg/injection, schedule: Q01DX009 (ip), vehicle: saline with Tween-80) is 89 % of control; the T/C (dose: 200.0 mg/kg/injection, schedule: Q01DX009 (ip), vehicle: saline with Tween-80) was 92 % of control.
`Cc1ccc(C[n+]2cccc(NC(=O)COc3ccc(Cl)c(Cl)c3)c2)cc1`: the T/C under setting [6] was 95 % of control, the T/C under setting [7] was 93 % of control and the T/C under setting [8] is 98 % of control.
On to `Nc1nc(=S)c2ncn(C3OC(CO)CC3O)c2[nH]1` (stereo unspecified), for which the T/C (dose: 10.0 mg/kg/injection, schedule: Q01DX009 (ip), vehicle: other) was 160 % of control; the T/C (dose: 88.8 mg/kg/injection, schedule: Q01DX001 (ip), vehicle: carboxymethylcellulose (CMC)) is 162 % of control; the T/C under setting [18] is 189 % of control.
Consider `c1ccc2cc(C3OCC4(CCC4)CO3)ccc2c1`, for which the T/C is 94 % of control under setting [16]; 104 % of control under setting [17]; 104 % of control (dose: 400.0 mg/kg/injection, schedule: Q01DX001 (ip), vehicle: Klucel (hydroxypropylcellulose) (HPC)).
